The EC50 is the concentration giving half of the maximal effect.

This is an account of results in PubChem BioAssay AID434951 (Broad Institute, 2010).

Calls of active or inactive are those of the source.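 Rule for the calls: active = a fitted half-maximal concentration EC50 for the rise in nuclear signal no higher than ten times the top dose tested; inconclusive = flat fit with activity between 30% and 70%, or unusable fit; inactive = EC50 beyond ten times the top dose.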

Chain of Hypoxia-inducible factor 1-alpha (Homo sapiens) (Q16665 whole entry, looked up): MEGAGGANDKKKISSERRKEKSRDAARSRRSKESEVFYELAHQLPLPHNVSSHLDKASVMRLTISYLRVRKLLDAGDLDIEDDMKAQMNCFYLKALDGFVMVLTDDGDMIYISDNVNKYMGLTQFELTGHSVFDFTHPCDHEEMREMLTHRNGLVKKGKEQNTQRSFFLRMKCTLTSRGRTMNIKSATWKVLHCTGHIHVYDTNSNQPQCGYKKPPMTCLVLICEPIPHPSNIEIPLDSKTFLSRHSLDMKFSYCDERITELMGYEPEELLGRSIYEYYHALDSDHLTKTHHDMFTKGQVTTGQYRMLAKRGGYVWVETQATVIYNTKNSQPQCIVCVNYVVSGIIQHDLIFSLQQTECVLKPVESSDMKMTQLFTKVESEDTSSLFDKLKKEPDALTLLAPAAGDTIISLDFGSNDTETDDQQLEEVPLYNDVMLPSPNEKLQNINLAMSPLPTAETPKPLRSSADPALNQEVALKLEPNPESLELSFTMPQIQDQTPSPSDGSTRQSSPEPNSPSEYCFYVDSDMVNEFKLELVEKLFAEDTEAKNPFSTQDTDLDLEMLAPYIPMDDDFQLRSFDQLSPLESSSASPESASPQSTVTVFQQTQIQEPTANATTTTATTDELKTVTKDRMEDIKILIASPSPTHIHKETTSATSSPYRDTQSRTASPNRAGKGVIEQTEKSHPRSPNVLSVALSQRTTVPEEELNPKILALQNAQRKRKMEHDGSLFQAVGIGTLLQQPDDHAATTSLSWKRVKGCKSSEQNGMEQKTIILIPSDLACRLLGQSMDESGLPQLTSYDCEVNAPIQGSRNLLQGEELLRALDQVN

This test concerns the target Hypoxia-inducible factor 1-alpha (Homo sapiens) (UniProt Q16665). The test is described as follows: activators of HIF1alpha nuclear accumulation, confirmation, imaging, fluorescence, U2OS GFP-HIF1alpha (AID 434951). Conditions: U2OS GFP-HIF1alpha nuclear intensity, high-content imaging.
Take `COc1ccc2c(c1)-c1nc(NC(=O)c3ccco3)sc1CC2`: the EC50 was > 35 µM (inactive).

Regarding `CC(Oc1ccc2ccc(=O)oc2c1)C(=O)NCCN1CCOCC1` (configuration not stated), the EC50 was > 35 µM (inactive).

With `O=C(NCCCn1ccnc1)c1cc(-c2cccs2)on1`, the EC50 was 2.68 µM.

For `O=[N+]([O-])c1ccc(N/N=C/c2ccccc2O)cc1`, the EC50 was > 35 µM (inactive).

As to `CCCc1[nH]nc2c1C(c1ccoc1)C(C#N)=C(N)O2` (configuration not stated), the EC50 is > 35 µM (inactive).

As for `C=C(C)Cn1c(CCNC(=O)C(C)C)nc2ccccc21`, the EC50 is > 35 µM (inactive).

`CCCCCN(C(=O)CCC(=O)OCC(=O)c1ccc(C(C)CC)cc1)c1c(N)n(CCCC)c(=O)[nH]c1=O` (configuration not stated): the EC50 was > 35 µM (inactive).

On to `Cc1cc(Oc2ccccc2)nc(N2CCOCC2)n1`, for which the EC50 was > 35 µM (inactive).

On to `COc1ccc(CC(=O)NNC(=S)NCC2CC2)cc1OC`, for which the EC50 was > 35 µM (inactive).

Turning to `Cc1sc2cc3c(c(C(=O)c4ccccc4)[n+]2c1C)-c1cccc2cccc-3c12`, the EC50 was > 35 µM (inactive).

Regarding `O=C(c1cccnc1)c1cc2ccccc2[nH]1`, the EC50 is > 35 µM (inactive).

With `Cc1nnc(-c2ccccc2)c(=O)n1/N=C/c1c(O)ccc2ccccc12`, the EC50 was 8.4 µM.

As for `CCOC(=O)c1c(C)[nH]c(C)c1S(=O)(=O)N1c2ccccc2CC1C` (configuration not stated), the EC50 was > 35 µM (inactive).

Regarding `Cc1onc(-c2ccccc2)c1C(=O)Nc1ccc(S(=O)(=O)N2CCCC2)cc1`, the EC50 was > 35 µM (inactive).

Consider `COc1cccc(CN2CCC(N(CCc3ccccc3)Cc3ccccc3)CC2)c1OC`, for which the EC50 was > 35 µM (inactive).

Consider `CCOc1ccc(NC(=O)C2CCN(S(=O)(=O)c3ccc4c(c3)N(C(C)=O)CCO4)CC2)cc1`, for which the EC50 was > 35 µM (inactive).

On to `Cc1ccc(O)c(NC(=O)c2ccc3c(c2)C(=O)N(Cc2ccco2)C3=O)c1`, for which the EC50 was > 35 µM (inactive).

For `O=C1NC(=O)/C(=C/c2ccc(OS(=O)(=O)c3ccc(F)cc3F)cc2)N1`, the EC50 was > 35 µM (inactive).

As for `NC(=O)CSc1nnc2ccc(-c3ccc(Cl)cc3)nn12`, the EC50 was > 35 µM (inactive).

In the case of `Cc1ccc(C2=NS(=O)(=O)N(C)C(C(=O)NC3CCCC3)=C2)cc1`, the EC50 is > 35 µM (inactive).

For `CC(C)c1ccc(NC(=O)CCc2ccccc2)cc1`, the EC50 was > 35 µM (inactive).

With `O=C(NCCc1ccccc1)c1cc2sccc2n1Cc1ccccc1`, the EC50 was > 35 µM (inactive).

For the compound `NS(=O)(=O)c1ccc(CNC(=O)c2csc3c2CCCC3)cc1`, the EC50 is > 35 µM (inactive).

In the case of `Cc1cc(-c2nnnn2-c2cc(Cl)cc(Cl)c2)no1`, the EC50 is > 35 µM (inactive).

As to `Fc1ccc(CSc2ccc(-c3ccco3)nn2)cc1`, the EC50 is > 35 µM (inactive).

With `CC(=O)c1ccc(N(C(=O)c2csnn2)C(C(=O)NC(C)(C)C)c2cccs2)cc1` (configuration not stated), the EC50 was > 35 µM (inactive).

For the compound `FC(F)(F)c1ccc(CSc2ccccn2)cc1`, the EC50 was > 35 µM (inactive).

Consider `COc1ccc2nc(-c3cccc(N)c3)[nH]c2c1`, for which the EC50 is > 35 µM (inactive).

In the case of `Cc1ccc(Nc2c(-c3ccccn3)nc3cccc(C)n23)cc1`, the EC50 is 4.41 µM.

`O=C(CN1CCCC1)N/N=C/c1c(O)ccc2ccccc12`: the half-maximal effective concentration (EC50) was 8.15 µM.

`Cc1nnc(-c2ccccc2)nc1N(C)C`: the EC50 was > 35 µM (inactive).

On to `Cc1ccn2c(Nc3ccccc3C)c(-c3ccccn3)nc2c1`, for which the EC50 is 6.66 µM.

In the case of `CC[n+]1c(S(=O)(=O)[O-])ccc2ccc(C)cc21`, the EC50 is > 35 µM (inactive).

On to `CCOC(=O)c1c(S(=O)(=O)N2CCC(C)CC2)c(C)n(C)c1C`, for which the EC50 is > 35 µM (inactive).

As to `O=C(NCC1CCCO1)c1cc(-c2ccc(F)cc2)no1` (configuration not stated), the EC50 is 32.6 µM.

With `COc1ccc(CSCC(=O)Nc2ccc(S(=O)(=O)N3CCCCCC3)cc2)cc1`, the EC50 is > 35 µM (inactive).

Consider `CCN(CC)c1ccc(/C=N/Nc2nc3ccccc3[nH]2)c(O)c1`, for which the EC50 is 6.95 µM.

`Fc1cccc(/C=N/Nc2nccnc2Cl)c1`: the EC50 is > 35 µM (inactive).

Turning to `O=C(NC(=S)Nc1ccccn1)c1cccc([N+](=O)[O-])c1`, the EC50 was > 35 µM (inactive).

Turning to `CCC(Sc1nc(C)cc(=O)[nH]1)C(=O)Nc1sc2c(c1C#N)CCCC2` (configuration not stated), the EC50 was > 35 µM (inactive).

Regarding `CC(=O)Nc1ccc2c(c1)CCCC2=O`, the EC50 was > 35 µM (inactive).

In the case of `COc1ccc(C(NC(=O)c2cccnc2)c2cc(Cl)c3cccnc3c2O)cc1OC` (configuration not stated), the EC50 was 7.09 µM.

Take `CC12CC3(C)CC(C)(C1)CC(C(=O)NCCc1ccc(S(N)(=O)=O)cc1)(C2)C3`: the EC50 was > 35 µM (inactive).

Regarding `COc1ccc2nc(NC(=O)c3cccs3)sc2c1`, the EC50 is > 35 µM (inactive).

Consider `O=C(CSc1nnc(-c2ccccc2Cl)o1)N1CCOCC1`, for which the EC50 was > 35 µM (inactive).

Take `C=CCN(c1ccccc1)S(=O)(=O)c1cccc(C(=O)Nc2ncccc2O)c1`: the EC50 is > 35 µM (inactive).

On to `O=C(N/N=C/c1cc(Br)ccc1O)c1cccc(N2CCCC2=O)c1`, for which the EC50 is 13.5 µM.

Consider `COc1cc(C(=O)N2CCN(C(=O)Cc3ccccc3)CC2)cc(OC)c1OC`, for which the EC50 was > 35 µM (inactive).

For the compound `Cn1nc(C(F)(F)F)cc1C(=O)NC1CCCCCC1`, the EC50 was > 35 µM (inactive).

As to `CCOc1ccc(-c2c(C(=O)N/N=C/c3cccnc3)nnn2-c2nonc2N)cc1`, the EC50 was > 35 µM (inactive).

With `COc1cc(CC(=O)Nc2ccc(Cl)c(C(F)(F)F)c2)cc(OC)c1OC`, the EC50 was > 35 µM (inactive).

As for `C=CCSc1cc(C)nc2c(-c3ccccc3)cnn12`, the EC50 is > 35 µM (inactive).

Turning to `COc1cnc(-c2ccccn2)nc1NC(C)C`, the EC50 is 1.85 µM.

`COc1cccc(-c2cc(C(F)(F)F)n3nc(C(=O)N4CCC5(CC4)OCCO5)cc3n2)c1`: the EC50 is > 35 µM (inactive).

Turning to `CCOc1ccc2c(c1)c1nnc(SCC3CCCO3)nc1n2C` (configuration not stated), the EC50 was > 35 µM (inactive).

Take `CN(CC1CCCO1)S(=O)(=O)c1ccc(C(=O)Nc2nccs2)cc1` (configuration not stated): the EC50 was > 35 µM (inactive).

For `CCN(CCCCCN(C)C)Cc1cc2ccccc2o1`, the EC50 is > 35 µM (inactive).

In the case of `COCCn1c(-c2ccc(OC)cc2)cnc1SCC(=O)Nc1ccc(OC)cc1OC`, the EC50 was > 35 µM (inactive).

For `Oc1ccccc1C(Nc1nccs1)c1ccc2cccnc2c1O` (configuration not stated), the EC50 is 6.57 µM.

Turning to `COc1ccc(CN2CCNC(=O)C2CC(=O)NC2CCCC2)c(OC)c1` (configuration not stated), the EC50 was > 35 µM (inactive).

`CCSc1cc(C)nc2c(-c3ccccc3)cnn12`: the EC50 is > 35 µM (inactive).

Regarding `O=C(Nc1ccc2ccccc2c1)c1ccccc1O`, the EC50 is > 35 µM (inactive).

Consider `COC(=O)/C(=C(/F)SCC(C)=O)C(F)(F)F`, for which the EC50 is > 35 µM (inactive).

Take `CCN(CC)c1ccc(/C=N/Nc2nc(C)cc(=O)[nH]2)c(O)c1`: the EC50 was 34.4 µM.

As for `Cc1cccc2[nH]c(CN(C)C(=O)C3CCC(=O)N(C4CC4)C3)nc12` (configuration not stated), the EC50 was > 35 µM (inactive).

With `CCOc1ccc(N2CC(C(=O)Nc3ccccc3C(=O)NC3CC3)CC2=O)cc1` (configuration not stated), the EC50 was > 35 µM (inactive).

Turning to `Cc1cc(SCC(=O)N/N=C/c2ccc(O)cc2O)c(C)cc1Br`, the EC50 was 32.3 µM.
